Consider 5 molecules from US20150079089A1, “EMP2 REGULATES ANGIOGENESIS IN CANCER CELLS THROUGH INDUCTION OF VEGF” (THE REGENTS OF THE UNIVERSITY OF CALIFORNIA, priority 2012, published 2015).

The test system of one assay is HUVEC. The note with it: supernatants of HEC1a/RIBO or HEC1a/shRNA 911; 20 or 50 µg/ml. An excerpt:
Migration assays. […] The experiment was repeated three times.

Another assay has as its system HIF-1a. Description: HIF-1a expression by Western blot in HEC1a/EMP2 cells treated with kinase inhibitors in a hypoxic chamber. In kind it is cell-based, human. The note with it: 24 hrs, 1.0% hypoxic chamber. As to the method: To determine if EMP2 expression altered VEGF expression and secretion, cells were placed in a hypoxic chamber for 24 hours. EMP2 expression directly correlated with VEGF protein levels (FIG. 4B) as well as with secreted protein (FIG. 4C). […] Western blot analysis was carried out by Cells were lysed in Laemmli buffer. Proteins were separated by SDS-PAGE, transferred to a nitrocellulose membrane (Amersham Biosciences), and stained with Ponceau S (Sigma-Aldrich, St. Louis, Mo.) to determine transfer efficiency. Membranes were blocked with 10% low fat milk in PBS containing 0.1% Tween 20 and probed with EMP2 antisera (1:1000), anti-VEGF (Santa Cruz Biotech), antiHIF-1a (1:800; BD Biosciences), anti-PPAR-y (Santa Cruz Biotech), anti-p-Src (Cell Signaling, Danvers). Protein bands were visualized using a horseradish peroxidase (HRP)-labeled secondary antibody (BD Biosciences) followed by chemiluminescence (ECL; Amersham Biosciences). Band intensities were quantified using the NIH program Image J as above. To account for loading variability β-actin was used to normalize each sample. At least three independent experiments were performed and, where indicated, the results were evaluated for statistical significance using a Student's t-test (unpaired, one-tail). A level of P<0.05 was considered to be statistically significant.
In some experiments, inhibitors were added to determine the contribution of specific pathways to HIF-1a expression. HEC1a/EMP2 cells were treated with 10 μM of the kinase inhibitor Ly294002 (Cell Signaling), the EGFR inhibitor Erlotinib e; 10 μM, Genentech), or the Src family tyrosine kinase inhibitor Dasatinib e; 10 μM, Bristol-Myers Squibb). Efficacy of the inhibitors was tested at the manufacturer's recommended dosage, and potential toxicity was measured using trypan-blue exclusion. Samples were harvested and probed by SDS-PAGE/Western blot analysis as above […]
Using common inhibitors of AKT, PI3-kinase, EGFR, and Src tyrosine kinases, HEC1a/EMP2 cells were treated with these agents while in a hypoxic chamber.

Assay [1] has as its system human aortic endothelial cell (HAEC). The experiment in a line: Boyden chamber migration of HAEC towards cultured tumor cell supernatants. The note with it: added at 10μg/ml to the cultured tumor cell supernatant. The class given is cell-based. The protocol:
FIG. 4 depicts that EMP2 regulates VEGF expression. (A) A Boyden chamber assay was used to determine human aortic endothelial cell (HAEC) response to cultured tumor cell supernatants. In some experiments, the antiVEGF antibody Avastin® which binds soluble VEGF was added at 10μg/ml to the cultured supernatant. (B) The expression of total VEGF was measured using Western blot analysis. EMP2 expression was visualized to verify modulation of EMP2 in the cell lines; β-Actin was used as the loading control. (C) Secreted VEGF was measured using an ELISA. (D) Semi-quantitative expression of VEGF mRNA was determined using RTPCR. The experiment was repeated three times with similar results, and a representative blot is shown. GAPDH expression serves as a loading control. (E) Left, To determine the mechanism for VEGF regulation, HIF-1 a and PP ARy expression was determined using Western blot analysis. β-Actin expression serves as the loading control. Right, Quantization of HIF-1a expression relative to β-Actin for three independent experiments. The data represents the mean±SEM. […] Appropriate vehicle control cells are included. Western blot analysis was used to show the expression of EMP2, HIF-1a, and β-Actin in these cells.
Human umbilical vein endothelial cells (HUVEC) from passage 2 were purchased from BD Biosciences (San Diego, Calif.) and used between passages 3 and 7 for all experiments. […]

“Also recorded” adds a separate entry of the source.

On to VEGF, for which, in the assay on HUVEC, the “HUVEC cell tube formation” value is recorded as “sufficient to induce HUVEC cell tube formation”. For `O=c1[nH]c2ccccc2n1C1CCN(Cc2ccc(-c3nc4cc5[nH]cnc5cc4nc3-c3ccccc3)cc2)CC1` [AKTi, Akt inhibitor VIII], the “EMP2-induced HIF-1a expression” value with HIF-1a is given as “did not alter HIF-1a expression”; with HIF-1a (listed as AKT inhibitors), “did not suppress”. As to `C#Cc1cccc(Nc2ncnc3cc(OCCOC)c(OCCOC)cc23)c1` [erlotinib, Erlotinib], the “EMP2-induced HIF-1a expression” value in the assay on HIF-1a is “produced a similar effect; also recorded: sufficient to inhibit its expression”.

On to Bevacizumab, for which, in assay [1], the HAEC migration result is “reduced HAEC migration to control levels”. As to `CC(C)(C)n1nc(-c2ccc(Cl)cc2)c2c(N)ncnc21` [PP2], the “EMP2-induced HIF-1a expression” value with HIF-1a is on record as “reversed”.
